Reference: PubChem BioAssay AID1261 (University of Pittsburgh Molecular Library Screening Center, 2008)
Records with an inconclusive call do not appear. Calls of active or inactive are those of the source. How the calls were made is not given here.

Target: Tyrosine-protein phosphatase YopH [Yersinia enterocolitica]
Assay: potency against Yersinia YopH phosphatase – biochemical, 10-point dose range, dose response (AID 1261)
Details: YopH phosphatase enzymatic assay, IC50, 3 runs; for inhibition: at 50 µM, stronger effect = higher value

| SMILES | inhibition [%] | IC50 |
| --- | --- | --- |
| CC1=CC(=C(C#N)c2nc3ccccc3s2)C=C(C)N1c1ccc(F)cc1F | 1.55 | – |
| O=C(NC(Cc1c[nH]c2ccccc12)c1nnc2n1CCCCC2)c1cccs1 (configuration not stated) | 0.82 | – |
| CCCNc1nc2c(c(=O)[nH]c(=O)n2C)n1Cc1ccc(F)cc1 | -11.6 | – |
| O=C1CCC(=O)N1CC(=O)N1c2ccccc2Sc2ccccc21 | -12.5 | – |
| COc1ccc(NC(=O)/C(=C/c2cccnc2)NC(=O)c2cccs2)cc1 | -16.6 | – |
| CCOC(=O)c1ccc(NS(=O)(=O)c2cc(-c3nnnn3C(C)C)ccc2OC)cc1 | -7.2 | – |
| CCN(CC)c1ccc(/C=N/Nc2ccc(C)cc2)c(O)c1 | 9.55 | > 50 µM (inactive) |
| CC1CCN(CCC(=O)N2CCCc3c2c(=O)oc2ccc(O)cc32)CC1 | -1.24 | – |
| Nc1nnc2c(n1)CCCC2 | 23 | – |
| N[C@@H](C(=O)N[C@@H]1C(=O)N2C(C(=O)O)=C(Cl)CS[C@H]12)c1ccccc1 | -8.78 | – |
| CCOC(=O)N1CCN(C(=O)Cn2c(C)cc3ccccc3c2=O)CC1 | -14.1 | – |
| CCOC(=O)Oc1ccc2oc(=O)cc(C)c2c1 | -13.7 | – |
| O=c1[nH]c(Nc2ccc(F)cc2)cc2ccccc12 | 28.2 | – |
| Cc1csc(N2CCc3ccccc32)n1 | -9.56 | – |
| Cc1ccc(CSCCNC(=O)CN2C(=O)c3ccccc3S2(=O)=O)cc1 | -6.7 | – |
| CN(C1=C(NC(=O)c2ccccc2)C(=O)c2ccccc2C1=O)C1CCS(=O)(=O)C1 (configuration not stated) | 27 | – |
| CC1=C(C(=O)OCC(C)C)C2(O)C(=O)c3ccccc3C2(O)N1 (configuration not stated) | 31.7 | > 50 µM (inactive) |
| O=C(Nc1nnc(C(F)(F)F)s1)c1ccc(N2C(=O)C3C4C=CC(C4)C3C2=O)cc1 (configuration not stated) | -8.43 | – |
| CCO/C=C1\C(=O)N(c2ccccc2)C(=O)c2ccccc21 | 39.1 | – |
| CCc1cc[n+](C2=C([O-])c3ccccc3C(=O)/C2=N\S(=O)(=O)c2cccs2)cc1 | 2.75 | – |
| CC(C)(C)c1cc(OC(=O)c2ccncc2)ccc1O | 30.2 | – |
| Cc1[nH]n(-c2ccccc2)c(=O)c1C(C[N+](=O)[O-])c1ccc(Cl)cc1 (configuration not stated) | -6.86 | – |
| O=S(=O)(c1ccc2ccccc2c1)N1CCC(c2nc(-c3ccncc3)no2)CC1 | -14.8 | – |
| O=C(O)c1ccc(NC2=C(N3CCOCC3)C(=O)c3ccccc3C2=O)cc1 | -0.899 | – |
| COc1ccc(N2C(=O)[C@@H]3[C@H](C2=O)[C@H]2c4ccccc4C=CN2[C@@H]3C(C)=O)cc1 | -6.89 | – |
| CC(=O)c1ccc(NC2=C(N3CCOCC3)C(=O)c3ccccc3C2=O)cc1 | 30.4 | – |

| SMILES | inhibition [%] | IC50 |
| --- | --- | --- |
| O=C(/C=C/c1ccc([N+](=O)[O-])cc1)OCC(=O)N1c2ccccc2Sc2ccccc21 | -1.56 | – |
| Cc1c(Br)cc(C(=O)OC2CCN(C)CC2)c(C)c1C | 0.211 | – |
| CCCCCCCC1=CC2=CC(=O)C(C)(OC(C)=O)C(=O)C2=CN1CCc1ccccc1 (configuration not stated) | -7.04 | – |
| c1ccc(-c2csc3ncnc(NCCCN4CCOCC4)c23)cc1 | -1.85 | – |
| CCCCn1c(N)c(NCCC(C)C)c(=O)[nH]c1=O | 33 | – |
| CC(=O)NC1=C(N(C)C2CCS(=O)(=O)C2)C(=O)c2ccccc2C1=O (configuration not stated) | 9.79 | – |
| Cc1oc2ccccc2c1-c1cn2c(n1)SCC2 | -2.41 | – |
| O=C(COC(=O)c1ccc([N+](=O)[O-])s1)Nc1ccccc1 | -23.9 | – |
| CCOC(=O)COc1cc(=O)n(CC)c2ccccc12 | -3.72 | – |
| CCN(CC)c1ccc(NC(=O)c2cccc(OC)c2)c(C)c1 | -4.28 | – |
| CCc1ccc(S(=O)(=O)/N=C2/C=C(Sc3ncn[nH]3)C(=O)c3ccccc32)cc1 | 17.2 | – |
| COc1ccc2cc(-c3cc(C(=O)OCC(=O)NC4CCS(=O)(=O)C4)c4ccccc4n3)ccc2c1 (configuration not stated) | 3.98 | – |
| COc1cccc(-c2nc(CS(=O)(=O)CC(=O)N3CCc4ccccc4C3)c(C)o2)c1 | -0.295 | – |
| O=C(NN=c1c(=O)c2ccccc2c1=O)c1ccccc1 | -14.5 | – |
| COC(=O)CSc1nnc(CNC(=O)c2cccc(C)c2)n1-c1ccccc1OC | -14.7 | – |
| COc1ccc(-c2nnc(SCC(=O)c3cccs3)o2)c(OC)c1 | -10.6 | – |
| CCN(CC)CCCNC(=O)Cc1c(C(=O)O)n(C)c2ccccc12 | -8.3 | – |
| CCN(CC)c1ccc(/C=N/Nc2ccccc2)c(O)c1 | -13.5 | > 50 µM (inactive) |
| COc1ccccc1-c1c(C)nn2c(N3CCCCCC3)cc(C)nc12 | -1.28 | – |
| O=C1C(Nc2cccc(O)c2)=C(N2CCCCC2)C(=O)c2ccccc21 | 35.8 | – |
| Cc1ccccc1/[N+]([O-])=C/c1ccncc1 | 15.6 | – |
| O=C1CC(N(O)c2ccccc2)C(=O)N1Cc1ccccc1 (configuration not stated) | -4.47 | – |
| COC(=O)c1ccc(Cl)c(NC(=O)CN2CCN(Cc3ccccc3)CC2)c1 | -9.15 | – |
| Cc1ccc(S(=O)(=O)N2CCCC(C(=O)NCc3ccco3)C2)cc1Cl (configuration not stated) | 12.9 | – |
| CC1(C)COC(/C=C/c2ccc([N+](=O)[O-])cc2)=N1 | -8.03 | – |
| Cc1noc(NS(=O)(=O)c2ccc(NC(=O)CCCOc3ccc(Cl)cc3Cl)cc2)c1C | -12.1 | – |

| SMILES | inhibition [%] | IC50 |
| --- | --- | --- |
| COc1ccc2c(c1)c(=O)cc(C)n2CC(=O)NCc1ccco1 | -3.64 | – |
| CC(=O)Nc1ccc(-c2nnc(SCC(=O)n3c4c(c5ccccc53)CCCC4)n2C)cc1 | -7.8 | – |
| CCCCOC(=O)C1=C(C)NC2(O)c3ccccc3C(=O)C12O (configuration not stated) | 36.9 | > 50 µM (inactive) |
| CCN(CC)c1ccc(/C=N/Nc2cccc(C)c2)c(O)c1 | 9.95 | > 50 µM (inactive) |
| COc1cc(NCCCCCCCN)c2ncccc2c1 | 56.5 | – |
| CCOC(=O)c1oc2ccc(Br)cc2c1CSc1nnc(C)s1 | -12.1 | – |
| COCCCNC(=O)CCCC(=O)NCCCOC | -17.3 | – |
| CCN(CC)c1ccc(C=Nc2ccccc2)c(O)c1 | 17.6 | – |
| COc1ccc(CN2C(=O)c3ccccc3C(/C=N\OCc3ccc(F)cc3)C2=O)cc1 (configuration not stated) | 3.35 | – |
| C#CCn1cc(C=C2C(=O)c3ccccc3C2=O)c2ccccc21 | 11.1 | – |
| O=[N+]([O-])c1ccc(-c2csc3[n+]2CCS3)cc1 | 20.8 | – |
| Cc1ccc2c(C)[nH]c(=O)cc2c1 | 0.968 | – |
| CCO/C=C1/C(=O)N(Cc2ccccc2)C(=O)c2ccccc21 | 49.7 | – |
| O=C(c1ccco1)N1CCN(CC(=O)N2CCCc3c2c(=O)oc2ccc(O)cc32)CC1 | -5.68 | – |
| CN(CC(=O)N1CCCc2c1c(=O)oc1ccc(O)cc21)Cc1ccccc1 | -1.35 | – |
| COC(=O)C1C(C(C)C)N(c2ccccc2)OC1(C)O (configuration not stated) | -0.943 | – |
| CCn1c(-c2cc(OC)c(OC)c(OC)c2)n[nH]c1=S | -24 | – |
| CCOc1cc(CNc2ccc(N3CCCC3)cc2)cc(Cl)c1OC | -6.54 | – |
| O=C(OCC1O[C@@H](OC(=O)c2cc(O)c(O)c(O)c2)[C@@H](OC(=O)c2cc(O)c(O)c(O)c2)[C@@H](OC(=O)c2cc(O)c(O)c(O)c2)[C@@H]1OC(=O)c1cc(O)c(O)c(O)c1)c1cc(O)c(O)c(O)c1 (some centres not stated) | 72.5 | – |
| Cc1ccc(NC2=C(N3CCOCC3)C(=O)c3ccccc3C2=O)cc1 | 18 | – |
| Cn1c(COc2ccccc2)nnc1SCc1nc2ccccc2[nH]1 | -3.78 | – |
| C=CCOC(=O)C1=C(C)NC2(O)c3ccccc3C(=O)C12O (configuration not stated) | 24.6 | > 50 µM (inactive) |
| Cc1ccc(NC(=O)c2ccnc(C(C)(C)C)c2)cc1 | -1.22 | – |
| Cc1ccc(C(=O)N2C(=S)C(c3ccc(F)cc3)=NC23CCN(C)CC3)cc1 | -3.79 | – |
